Reference: patent US20200223837A1, “BENZOFURAN AMIDES AND HETEROAROMATIC ANALOGUES THEREOF FOR USE IN THERAPY” (European Molecular Biology Laboratory, priority 2017, published 2020)

Tested on: EGR1 promoter
Experiment: EGR1 reporter assay (luciferase) in genomically engineered HeLa cell line
Assay type: cell-based
Conditions: Homo sapiens; EGR1 reporter HeLa cells, luciferase activity after 24 hours with compound
Description: The compounds of the present invention can be characterized for their effect on expression of egr1 (early growth response protein 1) using an EGR1 reporter cell line.
The HeLa cell line was genetically modified to provide a simple, robust and highly reproducible cell-based assay reporting the activity of an endogenous EGR1 promoter. In brief, a construct encoding EGFP and luciferase proteins, separated by a self-cleaving P2A peptide was inserted, using CRISPR, immediately downstream (3′) to the promoter of endogenous EGR1. Upon treatment with compounds, cells express EGFP and luciferase from EGR1 promoter, which can be readily detected either in live cells using microscopy or cytometry, or through detection of luciferase activity in cell lysates.
To achieve stable genomic integration of an EGR1-promoter dual reporter, two plasmids were generated: one contained the reporter construct (eGFP-P2A-luciferase) flanked by homology arms that direct insertion into genomic DNA, by homologous recombination, of a break in genomic DNA generated by guide RNA targeted cleavage by Cas9 endonuclease. The gRNA expressing plasmid was based on px330 (56), into which a gRNA sequence that targets a break in gDNA close to the start codon of EGR1 was cloned. The left homology arm (encoding part of EGR1 promoter adjacent to its start codon) and right homology arm (encoding […] of start codon of EGR1) were cloned from gDNA using the following primers: […]
The present compounds can be tested, e.g. by using a HeLa cell line carrying an EGR1 reporter construct which allows for expression of luciferase and eGFP (enhanced GFP) controlled by the EGR1 promoter. For this reporter cells are seeded in the wells of a 384 well microtiter plate at a density of 2000 cells per well in 48 μl of DMEM supplemented with 4.5 g/l glucose, 2 mM glutamine and 10% FCS and are incubated for 24 hours at 37° C. with 5% CO2 and 95% humidity. Then, an eleven point 1:3 serial dilution of each test compound, from an initial concentration of 100 μM, is prepared in DMSO and the dilutions are added to the cells in a volume of 2 μl per well. The cells are incubated for a further 24 hours, after which the luciferase activity of each well is determined by addition of 25 μl of luciferase substrate reaction mixture (Britelite™ plus, Perkin Elmer) and measuring the bioluminescence light output (EnVision Xcite plate reader, PerkinElmer).
The compound of example 64 served as a positive control for this EGR1 reporter assay. The compound of example 64 had been identified in an initial high throughput screening campaign.

SMILES | EC50
Cc1cnc(NC(=O)Cc2coc3c(C)c(C)ccc23)[nH]1 [Example 22, 2-(6,7-Dimethylbenzofuran-3-yl)-N-(5-methyl-1H-imidazol-2-yl)acetamide] | 10 to 100 µM
COc1ccc2c(CC(=O)Nc3nc(CC(N)=O)cs3)coc2c1 [Example 7, N-[4-(2-Amino-2-oxo-ethyl)thiazol-2-yl]-2-(6-methoxybenzofuran-3-yl)acetamide] | 10 to 100 µM
N#Cc1cnc(NC(=O)Cc2coc3c(Cl)c(Cl)ccc23)s1 [Example 73, N-(5-Cyanothiazol-2-yl)-2-(6,7-dichlorobenzofuran-3-yl)acetamide] | 0.01 to 10 µM
COc1ccc2c(CC(=O)Nc3ncc(C)s3)coc2c1 [Example 43, 2-(6-Methoxybenzofuran-3-yl)-N-(5-methylthiazol-2-yl)acetamide] | 0.01 to 10 µM
O=C(Cc1coc2c(Cl)cccc12)Nc1ncc(C(F)(F)F)s1 [Example 53, 2-(7-Chlorobenzofuran-3-yl)-N-[5-(trifluoromethyl)thiazol-2-yl]acetamide] | 0.01 to 10 µM
Cc1cnc(NC(=O)Cc2coc3cc(Cl)ccc23)s1 [Example 15, 2-(6-Chlorobenzofuran-3-yl)-N-(5-methylthiazol-2-yl)acetamide] | 10 to 100 µM
COc1ccc2nc(NC(=O)Cc3coc4cc5c(cc34)CCC5)sc2c1 [Example 32, 2-(6,7-Dihydro-5H-cyclopenta[f]benzofuran-3-yl)-N-(6-methoxy-1,3-benzothiazol-2-yl)acetamide] | 0.01 to 10 µM
Cc1ccc2c(CCC(=O)Nc3ncc(C(F)(F)F)s3)coc2c1C [Example 61, 3-(6,7-Dimethylbenzofuran-3-yl)-N-[5-(trifluoromethyl)thiazol-2-yl]propanamide] | 0.01 to 10 µM
Cc1cnc(NC(=O)Cc2coc3cc(C)c(C)cc23)s1 [Example 45, 2-(5,6-Dimethylbenzofuran-3-yl)-N-(5-methylthiazol-2-yl)acetamide] | 0.01 to 10 µM
Cc1ccc2c(CC(=O)Nc3ncc(C#N)s3)coc2c1C [Example 62, N-(5-Cyanothiazol-2-yl)-2-(6,7-dimethylbenzofuran-3-yl)acetamide] | 0.01 to 10 µM
CCc1cnc(NC(=O)Cc2coc3cc4c(cc23)CCC4)s1 [Example 84, 2-(6,7-Dihydro-5H-cyclopenta[f]benzofuran-3-yl)-N-(5-ethylthiazol-2-yl)acetamide] | 0.01 to 10 µM
COc1ccc(-c2csc(NC(=O)Cc3coc4cc(C)ccc34)n2)cc1OC [Example 50, N-[4-(3,4-Dimethoxyphenyl)thiazol-2-yl]-2-(6-methylbenzofuran-3-yl)acetamide] | 0.01 to 10 µM
Cc1c[nH]c(NC(=O)Cc2coc3cc4c(cc23)CCC4)n1 [Example 23, 2-(6,7-dihydro-5H-cyclopenta[f]benzofuran-3-yl)-N-(5-methyl-1H-imidazol-2-yl)acetamide] | 0.01 to 10 µM
CC(=O)NCc1ccc(-c2csc(NC(=O)Cc3coc4cc(C)c(C(C)C)cc34)n2)o1 [Example 1, N-[4-[5-(Acetamidomethyl)-2-furyl]thiazol-2-yl]-2-(5-isopropyl-6-methyl-benzofuran-3-yl)acetamide] | 10 to 100 µM
O=C(Cc1coc2cc(Cl)ccc12)Nc1ncc(C(F)(F)F)[nH]1 [Example 38, 2-(6-Chlorobenzofuran-3-yl)-N-[5-(trifluoromethyl)-1H-imidazol-2-yl]acetamide] | 0.01 to 10 µM
O=C(CCc1coc2ccccc12)Nc1ncc(C(F)(F)F)s1 [Example 44, 3-(Benzofuran-3-yl)-N-[5-(trifluoromethyl)thiazol-2-yl]propanamide] | 0.01 to 10 µM
NC(=O)c1cnc(NC(=O)Cc2coc3cc4c(cc23)CCC4)s1 [Example 18, 2-[[2-(6,7-Dihydro-5H-cyclopenta[f]benzofuran-3-yl)acetyl]amino]thiazole-5-carboxamide] | 10 to 100 µM
CCc1ccc2c(CC(=O)Nc3nccs3)coc2c1 [Example 20, 2-(6-Ethylbenzofuran-3-yl)-N-thiazol-2-yl-acetamide] | 10 to 100 µM
Cc1ccc2c(CC(=O)Nc3ncc(C(F)(F)F)s3)coc2c1Cl [Example 83, 2-(7-Chloro-6-methyl-benzofuran-3-yl)-N-[5-(trifluoromethyl)thiazol-2-yl]acetamide] | 0.01 to 10 µM

SMILES | EC50
COc1ccc2c(CC(=O)Nc3nc(-c4ccc(CNC(C)=O)o4)cs3)coc2c1 [Example 8, N-[4-[5-(Acetamidomethyl)-2-furyl]thiazol-2-yl]-2-(6-methoxybenzofuran-3-yl)acetamide] | 10 to 100 µM
O=C(Cc1coc2cc(Cl)ccc12)Nc1ncc(C(F)(F)F)s1 [Example 60, 2-(6-Chlorobenzofuran-3-yl)-N-[5-(trifluoromethyl)thiazol-2-yl]acetamide] | 0.01 to 10 µM
Cc1cnc(NC(=O)Cc2coc3c(Cl)c(C)ccc23)[nH]1 [Example 57, 2-(7-Chloro-6-methyl-benzofuran-3-yl)-N-(5-methyl-1H-imidazol-2-yl)acetamide] | 0.01 to 10 µM
COc1ccc2c(CC(=O)Nc3nc(-c4ccccn4)cs3)coc2c1 [Example 26, 2-(6-Methoxybenzofuran-3-yl)-N-[4-(2-pyridyl)thiazol-2-yl]acetamide] | 0.01 to 10 µM
COc1ccc(OC)c(-c2csc(NC(=O)Cc3coc4cc(OC)ccc34)n2)c1 [Example 14, N-[4-(2,5-Dimethoxyphenyl)thiazol-2-yl]-2-(6-methoxybenzofuran-3-yl)acetamide] | 10 to 100 µM
O=C(Cc1coc2ncccc12)Nc1ncc(C(F)(F)F)s1 [Example 106, 2-(Furo[2,3-b]pyridin-3-yl)-N-(5-(trifluoromethyl)thiazol-2-yl)acetamide] | 0.01 to 10 µM
N#Cc1cnc(NC(=O)Cc2coc3cc(Cl)ccc23)s1 [Example 46, 2-(6-Chlorobenzofuran-3-yl)-N-(5-cyanothiazol-2-yl)acetamide] | 0.01 to 10 µM
COc1ccc(-c2csc(NC(=O)Cc3coc4cc(C)ccc34)n2)cc1Cl [Example 67, N-[4-(3-Chloro-4-methoxy-phenyl)thiazol-2-yl]-2-(6-methylbenzofuran-3-yl)acetamide] | 0.01 to 10 µM
Cc1ccc2c(CC(=O)N(c3ccc(SC(F)F)cc3)c3nc4ccccc4s3)coc2c1 [Example 102, N-(1,3-Benzothiazol-2-yl)-N-[4-(difluoromethylsulfanyl)phenyl]-2-(6-methylbenzofuran-3-yl)acetamide] | 0.01 to 10 µM
COc1ccc2c(CC(=O)Nc3nc4c(s3)CCC4)coc2c1 [Example 54, N-(5,6-Dihydro-4H-cyclopenta[d]thiazol-2-yl)-2-(6-methoxybenzofuran-3-yl)acetamide] | 0.01 to 10 µM
COc1ccc2c(CC(=O)Nc3nc(-c4ccc5c(c4)OCO5)cs3)coc2c1 [Example 78, N-[4-(1,3-Benzodioxol-5-yl)thiazol-2-yl]-2-(6-methoxybenzofuran-3-yl)acetamide] | 0.01 to 10 µM
COc1ccc2c(CC(=O)Nc3nccs3)coc2c1 [Example 2, 2-(6-Methoxybenzofuran-3-yl)-N-thiazol-2-yl-acetamide] | 10 to 100 µM
CNC(=O)c1nc(NC(=O)Cc2coc3c(C)c(C)ccc23)sc1C(F)(F)F [Example 103, 2-(2-(6,7-dimethylbenzofuran-3-yl)acetamido)-N-methyl-5-(trifluoromethyl)thiazole-4-carboxamide] | 10 to 100 µM
CCc1ccc2c(CC(=O)Nc3nc(-c4ccc(NC(C)=O)cc4)cs3)coc2c1 [Example 52, N-[4-(4-Acetamidophenyl)thiazol-2-yl]-2-(6-ethylbenzofuran-3-yl)acetamide] | 0.01 to 10 µM
Cc1ccc2c(CC(=O)Nc3nc(-c4cccs4)cs3)coc2c1 [Example 27, 2-(6-Methylbenzofuran-3-yl)-N-[4-(2-thienyl)thiazol-2-yl]acetamide] | 0.01 to 10 µM
COc1ccc2c(CC(=O)Nc3nc(-c4cccs4)cs3)coc2c1 [Example 37, 2-(6-Methoxybenzofuran-3-yl)-N-[4-(2-thienyl)thiazol-2-yl]acetamide] | 0.01 to 10 µM
Cc1ccc2c(CC(=O)Nc3nc(-c4ccccn4)cs3)coc2c1 [Example 21, 2-(6-Methylbenzofuran-3-yl)-N-[4-(2-pyridyl)thiazol-2-yl]acetamide] | 10 to 100 µM
COc1ccc2nc(NC(=O)Cc3coc4cc(C)ccc34)sc2c1 [Example 41, N-(6-Methoxy-1,3-benzothiazol-2-yl)-2-(6-methylbenzofuran-3-yl)acetamide] | 0.01 to 10 µM
Cc1cc2occ(CC(=O)N(c3ccc(F)cc3)c3nc4ccccc4s3)c2cc1C(C)C [Example 16, N-(1,3-Benzothiazol-2-yl)-N-(4-fluorophenyl)-2-(5-isopropyl-6-methyl-benzofuran-3-yl)acetamide] | 10 to 100 µM
